ChEMBL document CHEMBL5625249, “Optimization and antifungal activity of quinoline derivatives linked to chalcone moiety combined with FLC against Candida albicans” (Eur J Med Chem, 2023)
Calls of active or inactive are those of the source. The calls are words filed in the database; no cut-off is given here.

Assays:
Candida albicans [1] = experiment: Antifungal activity against Clinical FLC-resistant Candida albicans 23 measured after 24 hrs by microdilution method; type: functional
Candida albicans [2] = experiment: Synergistic antifungal activity against Clinical FLC-resistant Candida albicans 23 assessed as fractional inhibitory concentration index measured after 24 hrs in presence of fluconazole by microdilution method; type: functional
Candida albicans [3] = experiment: Antifungal activity against clinical FLC-resistant Candida albicans 808 measured after 24 hrs by microdilution method; type: functional
Candida albicans [4] = experiment: Antifungal activity against clinical FLC-resistant Candida albicans 381 measured after 24 hrs by microdilution method; type: functional
Candida albicans [5] = experiment: Antifungal activity against clinical FLC-resistant Candida albicans 602 measured after 24 hrs by microdilution method; type: functional
Candida albicans [6] = experiment: Antifungal activity against clinical FLC-resistant Candida albicans 550 measured after 24 hrs by microdilution method; type: functional
Candida albicans [7] = experiment: Antifungal activity against clinical FLC-resistant Candida albicans 3816 measured after 24 hrs by microdilution method; type: functional
Candida albicans [8] = experiment: Synergistic antifungal activity against clinical FLC-resistant Candida albicans 381 measured after 24 hrs by microdilution method; type: functional
Candida albicans [9] = experiment: Synergistic antifungal activity against clinical FLC-resistant Candida albicans 800 measured after 24 hrs by microdilution method; type: functional
Candida albicans [10] = experiment: Synergistic antifungal activity against clinical FLC-resistant Candida albicans 799 measured after 24 hrs by microdilution method; type: functional
Candida albicans [11] = experiment: Synergistic antifungal activity against FLC-resistant Candida albicans ATCC 10231 measured after 24 hrs by microdilution method; type: functional
Candida albicans [12] = experiment: Synergistic antifungal activity against clinical FLC-resistant Candida albicans 602 assessed as fractional inhibitory concentration index measured after 24 hrs by microdilution method; type: functional
Candida albicans [13] = experiment: Synergistic antifungal activity against clinical FLC-resistant Candida albicans 550 assessed as fractional inhibitory concentration index measured after 24 hrs by microdilution method; type: functional
Candida albicans [14] = experiment: Synergistic antifungal activity against clinical FLC-resistant Candida albicans 800 assessed as fractional inhibitory concentration index measured after 24 hrs by microdilution method; type: functional
Candida albicans [15] = experiment: Synergistic antifungal activity against clinical FLC-resistant Candida albicans 799 assessed as fractional inhibitory concentration index measured after 24 hrs by microdilution method; type: functional
Candida albicans [16] = experiment: Synergistic antifungal activity against clinical FLC-resistant Candida albicans 3511 assessed as fractional inhibitory concentration index measured after 24 hrs by microdilution method; type: functional
Candida albicans [17] = experiment: Synergistic antifungal activity against clinical FLC-resistant Candida albicans 4574 assessed as fractional inhibitory concentration index measured after 24 hrs by microdilution method; type: functional
Candida albicans [18] = experiment: Synergistic antifungal activity against FLC-resistant Candida albicans ATCC 14053 measured over 48 hrs in presence of fluconazole by time-killing assay; type: functional, organism-based
Candida albicans [19] = experiment: Synergistic antifungal activity against FLC-resistant Candida albicans ATCC 14053 cultured in spider medium assessed as inhibition of hyphal formation at 1 ug/ml measured after 2 hrs in presence of fluconazole by inverted microscopy; type: functional, organism-based; details: dose 1.0 µg/ml
Candida albicans [20] = experiment: Synergistic antifungal activity against FLC-resistant Candida albicans ATCC 14053 assessed as inhibition of hyphal formation by measuring down regulation of CYR1 gene expression at 1 ug/ml measured after 16 to 18 hrs in presence of fluconazole by qRT-PCR analysis; type: functional, organism-based; details: dose 1.0 µg/ml, time 16-18 hrs
Candida albicans [21] = experiment: Synergistic antifungal activity against FLC-resistant Candida albicans ATCC 14053 assessed as inhibition of hyphal formation by measuring down regulation of ECE1 gene expression at 1 ug/ml measured after 16 to 18 hrs in presence of fluconazole by qRT-PCR analysis; type: functional, organism-based; details: dose 1.0 µg/ml, time 16-18 hrs
Candida albicans [22] = experiment: Synergistic antifungal activity against FLC-resistant Candida albicans ATCC 14053 assessed as inhibition of hyphal formation by measuring down regulation of HWP1 gene expression at 1 ug/ml measured after 16 to 18 hrs in presence of fluconazole by qRT-PCR analysis; type: functional, organism-based; details: dose 1.0 µg/ml, time 16-18 hrs
Candida albicans [23] = experiment: Synergistic antifungal activity against FLC-resistant Candida albicans ATCC 14053 cultured in SD +10% FBS liquid medium assessed as inhibition of hyphal formation at 1 ug/ml measured after 4 to 8 hrs in presence of fluconazole by inverted microscopy; type: functional, organism-based; details: dose 1.0 µg/ml, time 4-8 hrs
Candida albicans [24] = experiment: Synergistic antifungal activity against FLC-resistant Candida albicans ATCC 14053 cultured in spider medium assessed as inhibition of hyphal formation at 1 ug/ml measured after 4 to 8 hrs in presence of fluconazole and dibutyryl-cAMP by inverted microscopy; type: functional, organism-based; details: dose 1.0 µg/ml, time 4-8 hrs
[25] = Toxicity in Balb/c mouse assessed as death at 7.5 to 15 mg/kg, ig measured daily for 6 days in presence of fluconazole; type: organism-based; details: in vivo, po, 144 h, dose 7.5-15 mg/kg, time 6 day
Candida albicans [26] = experiment: In vivo antifungal activity against FLC-resistant Candida albicans ATCC 14053 infected in Balb/c mouse assessed as survival rate at 15 mg/kg, ig measured daily for 6 days (Rvb < 20%); type: functional; details: ATCC 14053, po, 144 h, time 6 day
[27] = Toxicity in Balb/c mouse assessed as weight loss at 7.5 to 15 mg/kg, ig measured daily for 6 days in presence of fluconazole; type: organism-based; details: in vivo, po, 144 h, dose 7.5-15 mg/kg, time 6 day
[28] = Toxicity in Balb/c mouse infected with FLC-resistant Candida albicans ATCC 14053 assessed as weight loss at 15 mg/kg, ig measured daily for 6 days; type: organism-based; details: in vivo, po, 144 h, time 6 day
Candida albicans [29] = experiment: In vivo antifungal activity against FLC-resistant Candida albicans ATCC 14053 infected in Balb/c mouse assessed as reduction in kidney fungal load at 7.5 to 15 mg/kg, ig measured after 6 days in presence of fluconazole; type: functional, organism-based; details: dose 7.5-15 mg/kg, time 6.0 day
Candida albicans [30] = experiment: In vivo antifungal activity against FLC-resistant Candida albicans ATCC 14053 infected in Balb/c mouse assessed as restoration of normal kidney morphology at 15 mg/kg, ig measured after 6 days by H and E staining based histopathological analysis; type: functional, organism-based; details: time 6.0 day
Candida albicans [31] = experiment: In vivo antifungal activity against FLC-resistant Candida albicans ATCC 14053 infected in Balb/c mouse assessed as restoration of normal glomeruli morphology at 15 mg/kg, ig measured after 6 days by H and E staining based histopathological analysis; type: functional, organism-based; details: time 6.0 day
Candida albicans [32] = experiment: In vivo antifungal activity against FLC-resistant Candida albicans ATCC 14053 infected in Balb/c mouse assessed as reduction in severity of lesions in kidney at 15 mg/kg, ig measured after 6 days by H and E staining based histopathological analysis; type: functional, organism-based; details: time 6.0 day
Candida albicans [33] = experiment: In vivo antifungal activity against FLC-resistant Candida albicans ATCC 14053 infected in Balb/c mouse assessed as reduction in renal injury at 15 mg/kg, ig measured after 6 days by H and E staining based histopathological analysis; type: functional, organism-based; details: time 6.0 day
Candida albicans [34] = experiment: In vivo antifungal activity against FLC-resistant Candida albicans ATCC 14053 infected in Balb/c mouse assessed as removal of colonized fungi at 15 mg/kg, ig measured after 6 days by H and E staining based histopathological analysis; type: functional, organism-based; details: time 6.0 day
Candida albicans [35] = experiment: In vivo antifungal activity against FLC-resistant Candida albicans ATCC 14053 infected in Balb/c mouse assessed as reduction in internal fungal growth at 7.5 to 15 mg/kg, ig measured after 6 days in presence of fluconazole by H and E staining based histopathological analysis; type: functional, organism-based; details: dose 7.5-15 mg/kg, time 6.0 day

For CN1CCN(c2nc3ccccc3cc2/C=C/C(=O)c2ccc(N3CCN(Cc4ccc(C(F)(F)F)cc4)CC3)cc2)CC1, which MIC80 (Candida albicans [1]) is on record?
Its MIC80 is > 40 µg/mL.

And the “fractional inhibitory concentration index (FICI)” value (Candida albicans [2])?
Its value is 0.03.

What about the MIC80 (Candida albicans [3]) of the same compound?
Its MIC80 is > 40 µg/mL.

What about the MIC80 (Candida albicans [4]) of the same compound?
The MIC80 was > 40 µg/mL.

And the MIC80 (Candida albicans [5])?
Its MIC80 is > 40 µg/mL.

And the MIC80 (Candida albicans [6])?
Its MIC80 is > 40 µg/mL.

What about the MIC80 (Candida albicans [7]) of the same compound?
The MIC80 was > 40 µg/mL.

And the MIC80 (Candida albicans [8])?
Its MIC80 is 1.35 µg/mL.

What about the MIC80 (Candida albicans [9]) of the same compound?
Its MIC80 is 1.28 µg/mL.

And the MIC80 (Candida albicans [10])?
The MIC80 was 1.12 µg/mL.

What about the MIC80 (Candida albicans [11]) of the same compound?
The MIC80 was 5.58 µg/mL.

And the “fractional inhibitory concentration index (FICI)” value (Candida albicans [12])?
The value was 0.14.

And the “fractional inhibitory concentration index (FICI)” value (Candida albicans [13])?
Its value is 0.15.

And the “fractional inhibitory concentration index (FICI)” value (Candida albicans [14])?
The value was 0.03.

What about the “fractional inhibitory concentration index (FICI)” value (Candida albicans [15]) of the same compound?
Its value is 0.03.

What about the “fractional inhibitory concentration index (FICI)” value (Candida albicans [16]) of the same compound?
The value was 0.15.

And the “fractional inhibitory concentration index (FICI)” value (Candida albicans [17])?
Its value is 0.02.

And the Activity (Candida albicans [18])?
The Activity was “Dose-Dependent Effect”.

And the inhibition (Candida albicans [19])?
The inhibition was “inactive”.

And the inhibition (Candida albicans [20])?
The inhibition was “Active”.

What about the inhibition (Candida albicans [21]) of the same compound?
The inhibition was “Active”.

What about the inhibition (Candida albicans [22]) of the same compound?
Its inhibition is “Active”.

What about the inhibition (Candida albicans [23]) of the same compound?
The inhibition was “Active”.

What about the inhibition (Candida albicans [24]) of the same compound?
Its inhibition is “inactive”.

What about the Activity [25] of the same compound?
Its Activity is “Non-Toxic”.

And the survival at 15 mg/kg (Candida albicans [26])?
Its survival at 15 mg/kg is 30%.

What about the Activity [27] of the same compound?
The Activity was “Non-Toxic”.

What about the Activity [28] of the same compound?
Its Activity is “Toxic”.

And the Activity (Candida albicans [29])?
The Activity was “Active”.

And the Activity (Candida albicans [30])?
Its Activity is “inactive”.

What about the Activity (Candida albicans [31]) of the same compound?
Its Activity is “inactive”.

What about the Activity (Candida albicans [32]) of the same compound?
The Activity was “inactive”.

What about the Activity (Candida albicans [33]) of the same compound?
The Activity was “inactive”.

And the Activity (Candida albicans [34])?
The Activity was “inactive”.

What about the Activity (Candida albicans [35]) of the same compound?
Its Activity is “Active”.
